Like-named read-outs stand apart in the source and are kept apart here.
How the values were obtained:
Assay in all cases: biochemical
Design in all cases: Eurofins DiscoverX kinase panel, competitive binding assay at 1 uM, percent of DMSO control
Details in all cases: competitive binding, percent of DMSO control
PI3K delta = molecular target: T1, PI3K delta (Homo sapiens, UniProt O00329)
T1 construct: gene PIK3CD
T1 sequence (O00329 1-1044): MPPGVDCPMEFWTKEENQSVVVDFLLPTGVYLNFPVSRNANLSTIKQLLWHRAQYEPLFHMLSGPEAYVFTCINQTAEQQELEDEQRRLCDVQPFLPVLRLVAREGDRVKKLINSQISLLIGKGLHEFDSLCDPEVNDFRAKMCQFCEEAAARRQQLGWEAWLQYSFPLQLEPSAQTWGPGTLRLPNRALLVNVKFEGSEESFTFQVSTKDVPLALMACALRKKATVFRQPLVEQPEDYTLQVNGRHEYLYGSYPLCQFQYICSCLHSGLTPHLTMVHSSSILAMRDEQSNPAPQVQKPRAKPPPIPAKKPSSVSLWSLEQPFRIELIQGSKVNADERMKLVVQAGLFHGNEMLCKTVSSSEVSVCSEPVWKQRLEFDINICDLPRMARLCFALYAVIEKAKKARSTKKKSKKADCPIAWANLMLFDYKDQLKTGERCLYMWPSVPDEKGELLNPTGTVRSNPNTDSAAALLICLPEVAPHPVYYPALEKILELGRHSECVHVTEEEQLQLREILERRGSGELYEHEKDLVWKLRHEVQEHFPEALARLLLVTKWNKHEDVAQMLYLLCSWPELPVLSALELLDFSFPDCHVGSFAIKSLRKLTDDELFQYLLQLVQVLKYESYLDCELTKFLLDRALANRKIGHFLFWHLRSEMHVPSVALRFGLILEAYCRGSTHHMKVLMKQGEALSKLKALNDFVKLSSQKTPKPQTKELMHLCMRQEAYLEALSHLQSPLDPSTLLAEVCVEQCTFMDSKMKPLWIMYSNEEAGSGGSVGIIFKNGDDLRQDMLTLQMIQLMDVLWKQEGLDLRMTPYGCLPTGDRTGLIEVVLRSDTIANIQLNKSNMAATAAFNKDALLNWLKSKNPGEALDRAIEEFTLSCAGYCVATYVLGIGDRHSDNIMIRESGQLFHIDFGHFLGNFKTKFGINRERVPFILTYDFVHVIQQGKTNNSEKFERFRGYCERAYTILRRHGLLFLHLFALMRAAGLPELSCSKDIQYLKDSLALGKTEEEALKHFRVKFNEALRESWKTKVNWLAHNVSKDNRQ
Summary of the method: (§1)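 Single-point profiling at 1 µM compound in a competition-binding format against 96 kinases, read out as POC relative to control; n = 1.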

MAPKAPK2 = MAPKAPK2 (Homo sapiens, UniProt P49137)
Sequence of MAPKAPK2 (P49137 whole entry): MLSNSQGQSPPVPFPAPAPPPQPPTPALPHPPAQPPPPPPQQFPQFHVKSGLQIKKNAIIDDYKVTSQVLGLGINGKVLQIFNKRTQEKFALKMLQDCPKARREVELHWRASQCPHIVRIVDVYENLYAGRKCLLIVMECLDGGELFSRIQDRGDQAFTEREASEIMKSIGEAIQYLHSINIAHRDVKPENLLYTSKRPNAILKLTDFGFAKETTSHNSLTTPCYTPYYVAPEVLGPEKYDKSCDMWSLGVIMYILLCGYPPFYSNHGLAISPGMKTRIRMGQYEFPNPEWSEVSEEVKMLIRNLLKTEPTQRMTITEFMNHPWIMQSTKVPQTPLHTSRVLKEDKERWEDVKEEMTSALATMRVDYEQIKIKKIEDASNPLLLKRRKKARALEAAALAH
Summary of the method: as §1

BTK = BTK (Homo sapiens, UniProt Q06187)
Sequence of BTK (Q06187 whole entry): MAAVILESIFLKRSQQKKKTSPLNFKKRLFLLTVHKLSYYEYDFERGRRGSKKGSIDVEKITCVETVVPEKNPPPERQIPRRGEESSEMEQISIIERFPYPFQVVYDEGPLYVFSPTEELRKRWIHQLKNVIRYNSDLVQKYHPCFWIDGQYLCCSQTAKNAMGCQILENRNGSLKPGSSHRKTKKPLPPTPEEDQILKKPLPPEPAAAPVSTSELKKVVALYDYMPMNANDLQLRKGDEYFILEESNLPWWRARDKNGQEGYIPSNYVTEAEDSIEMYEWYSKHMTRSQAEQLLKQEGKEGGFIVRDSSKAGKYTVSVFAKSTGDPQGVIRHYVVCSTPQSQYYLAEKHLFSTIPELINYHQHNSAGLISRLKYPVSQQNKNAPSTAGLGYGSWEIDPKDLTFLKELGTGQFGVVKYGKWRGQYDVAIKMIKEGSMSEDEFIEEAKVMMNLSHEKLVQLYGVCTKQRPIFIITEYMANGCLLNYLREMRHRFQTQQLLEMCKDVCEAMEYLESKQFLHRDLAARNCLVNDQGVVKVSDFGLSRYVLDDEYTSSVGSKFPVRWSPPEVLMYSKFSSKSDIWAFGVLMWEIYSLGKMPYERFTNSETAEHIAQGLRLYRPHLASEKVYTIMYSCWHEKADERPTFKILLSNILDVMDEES
Summary of the method: as §1

c-KIT = c-KIT (Homo sapiens, UniProt P10721)
Sequence of c-KIT (P10721 whole entry): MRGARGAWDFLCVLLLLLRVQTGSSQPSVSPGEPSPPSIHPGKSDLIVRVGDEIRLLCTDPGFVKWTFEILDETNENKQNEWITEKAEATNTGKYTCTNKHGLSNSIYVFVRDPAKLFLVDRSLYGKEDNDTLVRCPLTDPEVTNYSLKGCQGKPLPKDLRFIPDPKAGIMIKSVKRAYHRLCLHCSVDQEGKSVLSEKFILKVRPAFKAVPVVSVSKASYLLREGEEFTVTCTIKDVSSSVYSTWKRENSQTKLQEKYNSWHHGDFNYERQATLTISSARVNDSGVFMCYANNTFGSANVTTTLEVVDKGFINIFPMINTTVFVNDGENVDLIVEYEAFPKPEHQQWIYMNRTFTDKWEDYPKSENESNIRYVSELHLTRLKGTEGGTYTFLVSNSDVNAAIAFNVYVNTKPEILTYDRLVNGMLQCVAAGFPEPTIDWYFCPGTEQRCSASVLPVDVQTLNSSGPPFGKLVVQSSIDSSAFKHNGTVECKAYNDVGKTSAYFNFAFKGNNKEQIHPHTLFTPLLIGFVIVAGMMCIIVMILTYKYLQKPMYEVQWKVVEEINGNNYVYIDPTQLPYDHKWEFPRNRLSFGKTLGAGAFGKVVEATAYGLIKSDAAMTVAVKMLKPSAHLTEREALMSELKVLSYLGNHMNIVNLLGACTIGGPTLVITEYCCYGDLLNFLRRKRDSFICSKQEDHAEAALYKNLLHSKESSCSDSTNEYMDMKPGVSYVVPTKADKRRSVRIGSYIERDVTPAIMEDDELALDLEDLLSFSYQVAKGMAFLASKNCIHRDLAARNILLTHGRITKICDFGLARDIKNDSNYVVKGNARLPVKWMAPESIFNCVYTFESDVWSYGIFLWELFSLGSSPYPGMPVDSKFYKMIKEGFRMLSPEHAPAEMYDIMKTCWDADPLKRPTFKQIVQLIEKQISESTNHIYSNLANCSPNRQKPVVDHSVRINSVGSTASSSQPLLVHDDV
Summary of the method: as §1

[1] = read-out: Kinome Profiling performed by Eurofins DiscoverX / AM-1882, 1.0 µM / POC
[2] = read-out: Kinome Profiling performed by Eurofins DiscoverX / AM-0277, 1.0 µM / POC
[3] = read-out: Kinome Profiling performed by Eurofins DiscoverX / AM-5308, 1.0 µM / POC

Q: How did the remaining activity at 1 µM (PI3K delta; [1]) turn out when `CC(C)(C)NS(=O)(=O)c1cccc(NC(=O)c2ccc(S(=O)(=O)NC(C)(C)C)cc2N2CCC3(CC2)CC3)c1` [AM-1882] was run?
A: 96.5%

Q: And the remaining activity at 1 µM (MAPKAPK2; [1])?
A: 95.5%

Q: And the remaining activity at 1 µM (BTK; [1])?
A: 100%

Q: And the remaining activity at 1 µM (c-KIT; [1])?
A: 100%

Q: For `CC(C)(CO)Nc1ccc(C(=O)Nc2cccc(S(=O)(=O)C3CCCC3)c2)c(N2CCC3(CC2)CC3)n1` [AM-0277], which remaining activity at 1 µM (PI3K delta; [2]) is on record?
A: 100%

Q: What about the remaining activity at 1 µM (MAPKAPK2; [2]) of the same molecule?
A: 79%

Q: What about the remaining activity at 1 µM (BTK; [2]) of the same molecule?
A: 100%

Q: And the remaining activity at 1 µM (c-KIT; [2])?
A: 92%

Q: Which results are given for `C[C@@H]1CN(c2cccc(NC(=O)c3ccc(NS(=O)(=O)CCO)cc3N3CCC4(CC3)CC4)n2)CCO1` [AM-5308]?
A: remaining activity at 1 µM (PI3K delta; [3]): 68%; remaining activity at 1 µM (MAPKAPK2; [3]): 95%; remaining activity at 1 µM (BTK; [3]): 98.5%; remaining activity at 1 µM (c-KIT; [3]): 100%

— publication PMC10824666 (Nature Cancer, 2023)
